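Exposure lasted 48 hours, with cells grown in 96-well plates and compounds tested at five concentrations. Definition used: TGI = concentration required for complete inhibition of growth.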
How the values were obtained:
Test in all cases: NCI-60 cell line screen, 48 h
[1] = system: HOP-62 NSCLC
[2] = system: NCI-H522 lung
[3] = system: HCC-2998 colon
[4] = system: OVCAR-5 ovarian
[5] = system: SK-MEL-28 melanoma
[6] = system: HOP-92 NSCLC
[7] = system: SW-620 colon
[8] = system: KM12 colon
[9] = system: SNB-75 CNS
[10] = system: HCT-116 colon
[11] = system: SK-OV-3 ovarian
[12] = system: 786-0 renal
[13] = system: SF-539 CNS
[14] = system: SF-295 CNS
[15] = system: HT29 colon
[16] = system: SK-MEL-5 melanoma
[17] = system: A549 NSCLC
[18] = system: HCT-15 colon
[19] = system: UACC-257 melanoma
[20] = system: COLO 205 colon
[21] = system: OVCAR-4 ovarian
[22] = system: NCI/ADR-RES ovarian
[23] = system: DU-145 prostate
[24] = system: MALME-3M melanoma
[25] = system: NCI-H23 lung
[26] = system: M14 melanoma
[27] = system: EKVX NSCLC
[28] = system: U251 CNS
[29] = system: UACC-62 melanoma
[30] = system: K-562 leukemia
[31] = system: HS 578T breast
[32] = system: PC-3 prostate
[33] = system: SF-268 CNS
[34] = system: NCI-H460 lung
[35] = system: CAKI-1 renal
[36] = system: SR leukemia
[37] = system: MDA-MB-231 breast
[38] = system: RPMI-8226 leukemia
[39] = system: UO-31 renal
[40] = system: BT-549 breast
[41] = system: A498 renal
[42] = system: T-47D breast
[43] = system: OVCAR-8 ovarian
[44] = system: MCF7 breast
[45] = system: SNB-19 CNS
[46] = system: HL-60(TB) leukemia
[47] = system: MDA-MB-435
[48] = system: ACHN renal
[49] = system: TK-10 renal
[50] = system: RXF 393 renal
[51] = system: MDA-N
[52] = system: IGROV1 ovarian
[53] = system: SN12C renal
[54] = system: NCI-H226 lung
[55] = system: OVCAR-3 ovarian
[56] = system: MOLT-4 leukemia
[57] = system: SK-MEL-2 melanoma
[58] = system: CCRF-CEM leukemia
[59] = system: LOX IMVI melanoma

Measured: TGI

COC1/C=C/C(C)C(OC)CC(O)/C=C/C(C)C(C(C)C(OC)C(C)CCC(=O)C(C)C(C/C=C/N(C)C=O)OC)OC(=O)/C=C/C=C(\C)CC(OC)CC2=CC(=O)O[C@@H](C(C)C(OC)C1)[C@H]2O (stereo partly drawn)
0.905 µM: [11]
0.362 µM: [14]
0.318 µM: [19]
0.785 µM: [49]
0.504 µM: [29]
1.05 µM: [47]
0.423 µM: [52]
0.776 µM: [43]
1.21 µM: [21]
6.27 µM: [42]
3.7 µM: [38]
0.175 µM: [26]
0.265 µM: [50]
0.41 µM: [10]
0.178 µM: [51]
> 6.79 µM: [23]
0.3 µM: [39]
0.62 µM: [18]
1.35 µM: [3]
0.239 µM: [45]
0.131 µM: [41]
0.274 µM: [16]
0.498 µM: [40]
0.32 µM: [9]
0.0875 µM: [35]
1.09 µM: [32]
0.199 µM: [28]
0.653 µM: [2]
0.261 µM: [31]
0.503 µM: [12]
> 25 µM: [30] | [36] | [46] | [53]
0.317 µM: [24]
> 6.11 µM: [8]
0.434 µM: [13]
0.409 µM: [44]
1.1 µM: [17]
0.477 µM: [34]
1.32 µM: [27] | [48]
1.86 µM: [4]
1.14 µM: [22]
1.06 µM: [25]
0.16 µM: [1]
0.418 µM: [20]
0.385 µM: [5]
> 5.01 µM: [15]
0.106 µM: [37]
> 5.72 µM: [33]
> 12.4 µM: [7]
0.168 µM: [6]

COC(=O)[C@]12CC[C@H]3CN(C(=O)OCc4ccccc4)[C@H]([C@H]31)[C@H](C(=O)OCC[Si](C)(C)C)N2S(=O)(=O)c1ccc(C)cc1
9.68 µM: [6]
> 100 µM: [1] | [2] | [3] | [4] | [5] | [7] | [54] | [8] | [10] | [11] | [12] | [13] | [14] | [55] | [15] | [16] | [17] | [18] | [19] | [20] | [21] | [22] | [23] | [56] | [24] | [25] | [26] | [27] | [28] | [29] | [30] | [31] | [32] | [57] | [33] | [34] | [35] | [58] | [59] | [36] | [37] | [38] | [39] | [40] | [41] | [42] | [43] | [44] | [45] | [46] | [47] | [48] | [49] | [50] | [51] | [52] | [53]

NC(Cc1c[nH]c2ccccc12)P(=O)(O)O (stereo not drawn)
> 100 µM: [1] | [2] | [3] | [4] | [5] | [7] | [54] | [8] | [9] | [10] | [11] | [12] | [13] | [14] | [55] | [15] | [16] | [17] | [18] | [19] | [20] | [21] | [22] | [23] | [56] | [24] | [25] | [26] | [27] | [28] | [29] | [30] | [31] | [32] | [57] | [33] | [34] | [35] | [58] | [36] | [37] | [38] | [39] | [40] | [41] | [42] | [43] | [44] | [45] | [46] | [47] | [48] | [49] | [50] | [51] | [52] | [53]

From PubChem BioAssay (NCI)
